Reference: patent US20030236306A1, “Stabilized formulations of alpha adrenergic receptor antagonists and the uses thereof” (priority 2002, published 2003)
Structures can show the parent of a compound that is named as a salt.

Tests used:
[1] = system: local anesthesia by 2% polocaine (mepivacaine hydrochloride) with levonordefrin; assay: Reversal of local anesthesia by LARA versus saline vehicle, bilateral injection in human subjects; format: in vivo; conditions: three subjects, 0.05 mg/ml phentolamine mesylate (0.08 mg)
Experimental: An injection of the physiological saline vehicle (without phentolamine mesylate) served as the control. […] This was followed by injection of the phentolamine mesylate containing local anesthetic reversal agent (LARA) into one side of the oral cavity, and injection of the saline vehicle (control) solution into the opposite side of the oral cavity. The time to reversal of the local anesthetic effect on both sides was then recorded to determine whether there is a difference between the two sides.
The local anesthetic used was 2% polocaine (mepivacaine hydrochloride) with levonordefrin (1:20,000=0.05 mg/ml) (levonordefrin injection, USP) (Astra USA, Inc., Westborough, Mass. 01581). Levonordefrin is a sympathomimetic amine with a pharmacological profile similar to that of epinephrine, but with a lower potency.
Three healthy, male human subjects, age 34-50, volunteered to have local anesthetic injected in the mouth bilaterally under the lip in an easily repeatable location. The exact time of each injection was recorded. The position chosen was above (apical) the prominence of the root of the upper cuspid teeth. This is a common site selected to numb the cuspids, lateral incisors and upper lip. The volume of the local anesthetic injected was 1.7+0.1 ml on each side of the mouth. […]

[2] = Effect of sodium acetate buffer concentration on stability, pH 3.5, 60° C.; format: physicochemical
Experimental: (§1) The drug is monitored at a detection wavelength of 232 nm.
Tightly sealed glass vials containing the test solutions were placed in an oven at 40° C. or 60° C. All samples were stored in the dark. Aliquots were removed at designated time points for HPLC analysis and pH measurement.
In conjunction with HPLC analysis, pH was measured. The measurement was performed using the same samples as used for the HPLC analysis. The pH meter was calibrated using pH 4.00 and 7.00 buffer standards prior to each measurement.
Samples were incubated at 60° C. with scheduled testing performed at day 0, 2, 7, and 14. The various buffer concentrations were prepared by diluting the 50 mM buffer with water and re-examining the pH value to determine if the pH 3.5 was constant. Measurements of pH were performed after HPLC analysis of the samples.

[3] = Effect of additives on stability, pH 3.5, 60° C.; format: physicochemical; conditions: 10 mM Sodium Acetate
Experimental: as §1
The pH value of the solutions was readjusted to pH 3.5, as required.
All samples were placed in 10 ml glass serum vials, stoppered with rubber closures with an inert coating (Daikyo Flurotec by WEST Pharmaceutical), and sealed with flip-top caps after sampling. Vials were placed at 60° C. after the weights were recorded.
Sampling occurred at the initial time point and on days 2, 7, and 14.
Vials were weighed, sampled, sealed, re-weighed, and replaced under the selected storage condition until testing at the subsequent time point.

[4] = Tonicity testing by vapor pressure osmometer; format: physicochemical; conditions: 0.5 mg/ml disodium EDTA, pH 3.5
Excerpt: A vapor pressure osmometer (Westcore Model 5500) was used to measure the osmolarity of the solutions as well as a control of Normal Saline solution (0.9% sodium chloride, USP). The tonicity of the phentolamine solutions was represented by osmolarity. The measured osmolarity was plotted against d-mannitol concentration. A linear relationship was obtained between the osmolarity and d-mannitol concentration. The concentration of d-mannitol required to achieve the same osmolarity as the Normal Saline solution was calculated for the 10 or 50 mM sodium acetate buffered solution.

[5] = systemic doses, usually with marked hypotensive episodes; cited from earlier work
[6] = system: local anesthetic containing an alpha adrenergic receptor agonist; conditions: solution of 0.05 mg/ml; cited from earlier work

## Cc1ccc(N(CC2=NCCN2)c2cccc(O)c2)cc1 [Phentolamine Mesylate, phentolamine mesylate]
[1]
  side-effects: no side-effects of any kind
[2]; Sodium Acetate 0 mM (un-buffered), Day 0
  pH: 3.6
[2]; Sodium Acetate 0 mM (un-buffered), Day 2
  pH: 4.4
[2]; Sodium Acetate 0 mM (un-buffered), Day 7
  pH: 5.1
[2]; Sodium Acetate 0 mM (un-buffered), Day 14
  pH: 5.3
[2]; Sodium Acetate 5 mM, Day 0
  pH: 3.5
[2]; Sodium Acetate 5 mM, Day 2
  pH: 3.8
[2]; Sodium Acetate 5 mM, Day 7
  pH: 3.8
[2]; Sodium Acetate 5 mM, Day 14
  pH: 3.8
[2]; Sodium Acetate 10 mM, Day 0
  pH: 3.5
[2]; Sodium Acetate 10 mM, Day 2
  pH: 3.7
[2]; Sodium Acetate 10 mM, Day 7
  pH: 3.8
[2]; Sodium Acetate 10 mM, Day 14
  pH: 3.7
[2]; Sodium Acetate 50 mM, Day 0
  pH: 3.5
[2]; Sodium Acetate 50 mM, Day 2
  pH: 3.6
[2]; Sodium Acetate 50 mM, Day 7
  pH: 3.6
[2]; Sodium Acetate 50 mM, Day 14
  pH: 3.6
[3]; EDTA, 0.7 mg/ml
  Rate Constant (zero-order): 0.438 µg/mL/day
[3]; EDTA, 0.7 mg/ml, Day 0
  Phentolamine Concentration: 106 µg/mL
[3]; EDTA, 0.7 mg/ml, Day 2
  Phentolamine Concentration: 103 µg/mL
[3]; Glycerol, 25% w/v
  Rate Constant (zero-order): 0.726 µg/mL/day
[3]; NaCl, 50 mg/ml
  Rate Constant (zero-order): 1.663 µg/mL/day
[3]; Niacinamide, 50 mg/ml
  Rate Constant (zero-order): -0.026 µg/mL/day
[3]; No additive
  Rate Constant (zero-order): 1.027 µg/mL/day
[3]; Propylene glycol, 25% w/v
  Rate Constant (zero-order): 1.019 µg/mL/day
[3]; Sodium metabisulfite, 0.5 mg/ml
  Rate Constant (zero-order): 1.903 µg/mL/day
[3]; d-Mannitol, 40 mg/ml
  Rate Constant (zero-order): 0.416 µg/mL/day
[3]; α-Cyclodextran, 50 mg/ml
  Rate Constant (zero-order): 0.501 µg/mL/day
[4]; 10 mM sodium acetate
  Calculated % Mannitol for Isotonicity: 5.03%
[4]; 50 mM sodium acetate
  Calculated % Mannitol for Isotonicity: 4.39%
[4]; 2% Mannitol, 10 mM sodium acetate
  Measured Osmolality: 176 mmol/kg
[4]; 2% Mannitol, 50 mM sodium acetate
  Measured Osmolality: 193 mmol/kg
[4]; 3% Mannitol, 10 mM sodium acetate
  Measured Osmolality: 213 mmol/kg
[4]; 3% Mannitol, 50 mM sodium acetate
  Measured Osmolality: 234 mmol/kg
[4]; 4% Mannitol, 10 mM sodium acetate
  Measured Osmolality: 253 mmol/kg
[4]; 4% Mannitol, 50 mM sodium acetate
  Measured Osmolality: 276 mmol/kg
[5]
  side effects reported in package insert: Myocardial infarction, cerebrovascular spasm, and cerebrovascular occlusion have been reported
[6]
  reversal of local anesthetic effect: can rapidly reverse the effect of a local anesthetic
